Experimental data: patent US11986315B2, “Apparatus and method for the non-invasive detection of tetrahydrocannabinol use and impairment” (CHILDREN'S NATIONAL MEDICAL CENTER, priority 2018, dated 2024)

Test system: pupillary light reflex of an individual
Assay: pupillary light reflex after inhalation of THC (pupillometry)
Assay type: in vivo
Excerpt: Following acquisition 131, primary data such as, for instance, pupillary dimensions and pupillary oscillations therefrom, can be determined for each of the plurality of video frames in the video sequence of the eye of the patient 132. […]
Pupillary oscillations and/or reactions to light, as described above, can reflect the activity of the autonomic nervous system. […] The pupillary light reflex can be evaluated via the method, and apparatus thereof, of the present disclosure, wherein higher frequency activation occurs with increased sympathetic tone and lower frequency activation occurs from increased parasympathetic tone. […]
According to an embodiment, a variety of pupillometric measures can be evaluated from pupillary data following initial video sequence processing 132 such that, in combination with secondary data 134 including frequency spectra, patient response profiles can be better characterized. […] As introduced above, the baseline pupil size can be found before the flash of light and the maximally constricted size can be determined after the flash of light. […]

CCCCCc1cc(O)c2c(c1)OC(C)(C)[C@@H]1CCC(C)=C[C@@H]21 [THC, Δ^9-tetrahydrocannabinol]
influence on pupillary light reflex (cannabis-tolerant individual, 30, 60, 90, 120 and 150 minutes after inhalation of THC, FIG. 4): inhibited to varying levels | influence on pupillary light reflex (individual, 30, 60, 120 and 180 minutes after inhalation of 24 mg of THC, FIG. 3): inhibited to varying levels
